In ChEMBL document CHEMBL4257227, “Deubiquitinase inhibitors and methods for use of the same” (2016):
The source made the active and inactive calls. No cut-off for these calls is given here.

Tests used:
[1] = Plasma concentration in Balb/c mouse at 10 mg/kg, iv after 0.5 hrs by LC-MS analysis; format: ADME, organism-based
[2] = Plasma concentration in Balb/c mouse at 10 mg/kg, iv after 2 hrs by LC-MS analysis; format: ADME, organism-based
[3] = Plasma concentration in Balb/c mouse at 10 mg/kg, iv after 4 hrs by LC-MS analysis; format: ADME, organism-based
[4] = Plasma concentration in Balb/c mouse at 10 mg/kg, iv after 7 hrs by LC-MS analysis; format: ADME, organism-based
[5] = Plasma concentration in Balb/c mouse at 30 mg/kg, po after 0.5 hrs by LC-MS analysis; format: ADME, organism-based
[6] = Plasma concentration in Balb/c mouse at 30 mg/kg, po after 2 hrs by LC-MS analysis; format: ADME, organism-based
[7] = Plasma concentration in Balb/c mouse at 30 mg/kg, po after 4 hrs by LC-MS analysis; format: ADME, organism-based
[8] = Plasma concentration in Balb/c mouse at 30 mg/kg, po after 7 hrs by LC-MS analysis; format: ADME, organism-based
[9] = target: Ubiquitin carboxyl-terminal hydrolase 9X (Homo sapiens) (UniProt Q93008); experiment: Inhibition of Usp9x in human A375 cells; format: cell-based
Ubiquitin carboxyl-terminal hydrolase 9X (Homo sapiens), sequence (Q93008 whole entry): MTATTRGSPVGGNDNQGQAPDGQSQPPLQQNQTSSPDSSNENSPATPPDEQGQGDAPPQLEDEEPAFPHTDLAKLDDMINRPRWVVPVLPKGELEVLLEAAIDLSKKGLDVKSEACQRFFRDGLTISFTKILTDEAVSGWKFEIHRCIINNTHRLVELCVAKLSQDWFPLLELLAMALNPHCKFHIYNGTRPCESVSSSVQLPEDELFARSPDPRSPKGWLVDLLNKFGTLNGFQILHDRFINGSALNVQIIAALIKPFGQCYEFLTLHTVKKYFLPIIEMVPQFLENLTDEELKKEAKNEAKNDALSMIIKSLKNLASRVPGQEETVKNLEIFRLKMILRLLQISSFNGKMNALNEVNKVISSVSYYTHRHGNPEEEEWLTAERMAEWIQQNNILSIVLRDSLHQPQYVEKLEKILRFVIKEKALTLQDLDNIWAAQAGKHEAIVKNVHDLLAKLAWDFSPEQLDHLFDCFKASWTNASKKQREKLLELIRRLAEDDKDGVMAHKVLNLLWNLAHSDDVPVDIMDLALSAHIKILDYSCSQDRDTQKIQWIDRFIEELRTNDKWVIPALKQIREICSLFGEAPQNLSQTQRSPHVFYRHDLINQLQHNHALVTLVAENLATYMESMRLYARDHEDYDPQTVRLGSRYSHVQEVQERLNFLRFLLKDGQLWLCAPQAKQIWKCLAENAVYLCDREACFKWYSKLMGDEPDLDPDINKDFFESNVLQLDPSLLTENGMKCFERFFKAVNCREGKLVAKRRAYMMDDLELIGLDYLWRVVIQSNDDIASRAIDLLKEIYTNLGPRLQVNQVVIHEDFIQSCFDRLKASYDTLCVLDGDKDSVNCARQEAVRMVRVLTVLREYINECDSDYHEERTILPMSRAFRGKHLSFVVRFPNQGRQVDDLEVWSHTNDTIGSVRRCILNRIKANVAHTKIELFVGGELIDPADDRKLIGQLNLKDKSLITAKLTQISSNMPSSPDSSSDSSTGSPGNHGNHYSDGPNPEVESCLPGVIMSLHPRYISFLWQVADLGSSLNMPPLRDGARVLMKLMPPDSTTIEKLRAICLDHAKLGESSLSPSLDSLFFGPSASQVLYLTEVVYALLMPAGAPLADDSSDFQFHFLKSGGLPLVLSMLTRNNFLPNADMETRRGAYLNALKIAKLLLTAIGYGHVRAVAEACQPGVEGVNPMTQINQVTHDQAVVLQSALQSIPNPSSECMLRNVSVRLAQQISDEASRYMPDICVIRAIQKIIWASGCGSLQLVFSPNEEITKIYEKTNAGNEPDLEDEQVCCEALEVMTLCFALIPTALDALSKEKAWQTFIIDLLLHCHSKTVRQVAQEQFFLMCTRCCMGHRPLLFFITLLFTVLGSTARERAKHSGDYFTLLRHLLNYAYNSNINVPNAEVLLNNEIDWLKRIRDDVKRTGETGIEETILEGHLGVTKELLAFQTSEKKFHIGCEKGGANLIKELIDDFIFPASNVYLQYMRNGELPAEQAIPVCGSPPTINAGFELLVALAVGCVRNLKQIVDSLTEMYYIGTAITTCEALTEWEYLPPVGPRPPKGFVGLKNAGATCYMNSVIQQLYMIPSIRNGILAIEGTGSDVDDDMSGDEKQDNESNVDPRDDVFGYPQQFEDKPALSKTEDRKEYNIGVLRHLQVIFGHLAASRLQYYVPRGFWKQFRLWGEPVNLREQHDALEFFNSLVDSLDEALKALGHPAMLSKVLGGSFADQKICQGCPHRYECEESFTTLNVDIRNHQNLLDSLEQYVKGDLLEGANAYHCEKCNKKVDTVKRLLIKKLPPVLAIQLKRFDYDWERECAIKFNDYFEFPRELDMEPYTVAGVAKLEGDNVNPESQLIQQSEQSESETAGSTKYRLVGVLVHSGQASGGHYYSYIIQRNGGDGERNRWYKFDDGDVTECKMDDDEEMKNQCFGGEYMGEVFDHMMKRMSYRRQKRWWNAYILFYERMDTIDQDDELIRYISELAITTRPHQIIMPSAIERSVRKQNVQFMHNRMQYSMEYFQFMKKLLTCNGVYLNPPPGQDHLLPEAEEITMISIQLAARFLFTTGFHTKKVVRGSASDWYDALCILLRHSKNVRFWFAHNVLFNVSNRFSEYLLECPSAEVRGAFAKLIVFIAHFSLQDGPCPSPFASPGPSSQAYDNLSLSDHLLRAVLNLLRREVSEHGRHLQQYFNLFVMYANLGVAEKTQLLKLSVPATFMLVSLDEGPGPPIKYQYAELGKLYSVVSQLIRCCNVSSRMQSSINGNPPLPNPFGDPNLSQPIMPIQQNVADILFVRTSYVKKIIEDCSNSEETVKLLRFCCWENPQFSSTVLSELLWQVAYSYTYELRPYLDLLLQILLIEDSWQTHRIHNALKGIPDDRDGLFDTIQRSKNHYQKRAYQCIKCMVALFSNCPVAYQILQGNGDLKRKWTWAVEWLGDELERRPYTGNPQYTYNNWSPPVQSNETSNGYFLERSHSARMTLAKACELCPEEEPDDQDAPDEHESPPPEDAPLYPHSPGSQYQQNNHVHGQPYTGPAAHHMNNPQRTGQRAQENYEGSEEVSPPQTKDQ

[10] = tested on: Mus musculus; experiment: Toxicity in human MM1S cells xenografted NOD/SCID/gamma-2 knockout mouse assessed effect on body weight at 15 to 20 mg/kg, ip once per day for 14 days; format: functional, organism-based
[11] = tested on: A-375; experiment: Antitumor activity against human A375 cells xenografted in NOD/SCID/gamma-2 knockout mouse assessed as inhibition of tumor growth at 7.5 mg/kg, ip once per day for 8 days; format: functional, organism-based
[12] = tested on: Mus musculus; experiment: Toxicity in human A375 cells xenografted NOD/SCID/gamma-2 knockout mouse assessed effect on body weight at 15 mg/kg, ip once per day for 8 days; format: functional, organism-based
[13] = tested on: CD34-positive blood stem/progenitor cell; experiment: Induction of apoptosis in human CD34+ cells at 0.3125 to 5 uM incubated for 24 hrs by annexin V staining based flow cytometry; conditions: cd34-positive (myeloid/lymphoid) cell
[14] = tested on: NCI-H929; experiment: Induction of apoptosis in human NCI-H929 cells at 0.3125 to 5 uM incubated for 24 hrs by annexin V staining based flow cytometry; format: functional, cell-based
[15] = tested on: Murine norovirus; experiment: Antiviral activity against Murine norovirus infected in Swiss Webster bone marrow derived macrophages assessed as reduction in viral plaque forming units; format: functional, organism-based
[16] = tested on: Sindbis virus; experiment: Antiviral activity against Sindbis virus infected in African green monkey Vero cells assessed as reduction in viral plaque forming units; format: functional, organism-based
[17] = tested on: La Crosse virus; experiment: Antiviral activity against La Crosse virus virus infected in human Be2-c cells assessed as reduction in viral plaque forming units; format: functional, organism-based
[18] = target: T1, Ubiquitin carboxyl-terminal hydrolase 5 (Homo sapiens) (UniProt P45974); experiment: Inhibition of USP5 in Vemurafenib sensitive human A375 cells
T1 sequence (whole entry): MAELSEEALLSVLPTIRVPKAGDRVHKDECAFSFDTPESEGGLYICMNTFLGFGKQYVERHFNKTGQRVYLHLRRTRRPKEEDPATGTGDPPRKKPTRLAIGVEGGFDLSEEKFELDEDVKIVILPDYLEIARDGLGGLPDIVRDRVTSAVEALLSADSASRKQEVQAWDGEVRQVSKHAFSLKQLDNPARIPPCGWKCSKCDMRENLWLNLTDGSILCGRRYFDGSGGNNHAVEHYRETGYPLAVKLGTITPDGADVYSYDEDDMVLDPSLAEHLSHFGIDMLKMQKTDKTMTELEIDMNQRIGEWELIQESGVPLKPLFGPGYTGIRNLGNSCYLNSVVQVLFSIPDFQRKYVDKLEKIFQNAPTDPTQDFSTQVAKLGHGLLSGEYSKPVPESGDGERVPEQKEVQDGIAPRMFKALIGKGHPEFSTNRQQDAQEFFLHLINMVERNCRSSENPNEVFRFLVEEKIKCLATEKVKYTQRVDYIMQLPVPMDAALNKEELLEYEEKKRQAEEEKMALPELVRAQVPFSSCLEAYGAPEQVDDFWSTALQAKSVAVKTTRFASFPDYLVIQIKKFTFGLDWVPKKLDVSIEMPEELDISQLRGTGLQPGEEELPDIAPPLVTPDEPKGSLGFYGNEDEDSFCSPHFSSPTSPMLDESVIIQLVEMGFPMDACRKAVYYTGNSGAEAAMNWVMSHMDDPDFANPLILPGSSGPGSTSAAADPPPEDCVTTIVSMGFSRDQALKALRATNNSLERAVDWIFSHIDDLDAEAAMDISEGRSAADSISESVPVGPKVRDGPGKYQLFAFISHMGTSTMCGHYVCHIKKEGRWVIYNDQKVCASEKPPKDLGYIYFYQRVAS

[19] = target: T1, Ubiquitin carboxyl-terminal hydrolase 5 (Homo sapiens); experiment: Inhibition of USP5 in Vemurafenib resistant human A375 cells
[20] = tested on: A-375; experiment: Induction of p53 protein expression in Vemurafenib sensitive human A375 cells; format: functional, cell-based
[21] = target: T1, Ubiquitin carboxyl-terminal hydrolase 5 (Homo sapiens); experiment: Inhibition of USP5 in Vemurafenib […] human A375R cells assessed as reduction in ERK phosphorylation
[22] = target: T1, Ubiquitin carboxyl-terminal hydrolase 5 (Homo sapiens); experiment: Inhibition of USP5 in Vemurafenib […] human A375R cells assessed as reduction in STAT3 phosphorylation
[23] = target: T1, Ubiquitin carboxyl-terminal hydrolase 5 (Homo sapiens); experiment: Inhibition of USP5 in Vemurafenib […] human A375R cells assessed as increase in NOXA protein level
[24] = tested on: A375/R; experiment: Induction of apoptosis in human A375R cells assessed as induction of Bid cleavage; format: functional, cell-based
[25] = tested on: A375/R; experiment: Induction of apoptosis in human A375R cells assessed as induction of caspase-8 activation; format: functional, cell-based
[26] = tested on: A-375; experiment: Antitumor activity against human A375 cells xenografted in NOD/SCID/gamma-2 knockout mouse assessed as inhibition of tumor growth at 7.5 to 15 mg/kg, ip once per day for 8 days; format: functional, organism-based

CCCC(NC(=O)/C(C#N)=C/c1nc(Cl)ccc1Cl)c1ccc(OCCN2CCOCC2)cc1 (stereo unspecified)
concentration at 0.5 h [1]: 1.22 to 1.88 µg/mL | concentration at 2 h [2]: 0.395 to 0.52 µg/mL | concentration at 4 h [3]: 0.126 to 0.289 µg/mL | concentration at 7 h [4]: 0.0386 to 0.208 µg/mL | concentration at 0.5 h [5]: 0.0608 to 0.0787 µg/mL | concentration at 2 h [6]: 0.0358 to 0.059 µg/mL | concentration at 4 h [7]: 0.0445 to 0.0571 µg/mL | concentration at 7 h [8]: 0.0161 to 0.0376 µg/mL | inhibition [9]: Active | Activity [10]: Toxic | TGI [11]: Active | Activity [12]: Not toxic | Activity [13]: Non-Toxic | Activity [14]: Active | Activity [15]: Active | Activity [16]: Active | Activity [17]: Active | inhibition [18]: Active | inhibition [19]: Active | Activity [20]: inactive | inhibition [21]: Active | inhibition [22]: Active | inhibition [23]: Active | Activity [24]: Active | Activity [25]: Active | TGI [26]: Active
